Experimental data published in patent US6602873B2, “Angiogenesis inhibiting thiadiazolyl pyridazine derivatives” (Janssen Pharamaceutica, N.V., priority 1997, dated 2003).
Where a name gives a salt, the structure may show the parent alone.

System: microvessel formation in rat aortic rings
Test: rat aortic ring model of angiogenesis (inhibition of microvessel formation)
Format: cell-based
Conditions: microvessel area after eight days in culture vs vehicle-treated control rings
Description: Angiogenesis inhibitory activity was measured in vitro using the rat aortic ring model of angiogenesis as described by Nicosia, R. F. and Ottinetti in “Laboratory Investigation”, vol. 63, p. 115, 1990. The ability of compounds to inhibit microvessel formation was compared to vehicle-treated control rings. Quantitation (microvessel area) following eight days in culture was performed using an image analysis system, consisting of a light microscope, a CCD camera and an automated, custom-designed image analysis program as described by Nissanov, J., Tuman, R. W., Gruver, L. M., and Fortunato, J. M. in “Laboratory Investigation”, vol 73 (#5), p. 734, 1995. Compounds were tested at several concentrations for determination of inhibitory potency (IC50's).

Row | SMILES | IC50 | IC50 (192 h)
1 | Cc1nsc(-c2ccc(NCCCCOc3ccc(Cl)c(Cl)c3)nn2)n1 [Compound 17] | 12.8 nM | –
2 | Cc1nsc(-c2ccc(N(C)CCCCOc3cccc(C(F)(F)F)c3)nn2)n1 [Compound 52, N-methyl-6-(3-methyl-1,2,4-thiadiazol-5-yl)-N-[4-[3-(trifluoromethyl)phenoxy]butyl]-3-pyridazinamine] | – | 5.56 nM
3 | COc1cccc(OCCCCNc2ccc(-c3nc(C)ns3)nn2)c1 [Compound 30] | 6.31 nM | –
4 | Cc1nsc(-c2ccc(NCCCCOc3ccc(Br)cc3)nn2)n1 [Compound 14] | 31.2 nM | –
5 | Cc1nsc(-c2ccc(NCCCCCc3cccc(C(F)(F)F)c3)nn2)n1 [Compound 77] | 5.81 nM | –
6 | Cc1nsc(-c2ccc(NCCCCCCNc3cccc(C(F)(F)F)c3)nn2)n1 [Compound 8] | 8.53 nM | –
7 | Cc1nsc(-c2ccc(NCCN(C)c3cccc(C(F)(F)F)c3)nn2)n1 [Compound 105] | 1.49 nM | –
8 | Cc1nsc(-c2ccc(N(C)CCCCOc3ccccc3C(F)(F)F)nn2)n1 [Compound 49] | 0.312 nM | –
9 | Cc1nsc(-c2ccc(N(C)CCCCOc3ccccc3)nn2)n1 [Compound 35] | 29.4 nM | –
10 | Cc1nsc(-c2ccc(N(C)CCCCCc3cccc(C(F)(F)F)c3)nn2)n1 [Compound 78] | 0.28 nM | –
11 | Cc1nsc(-c2ccc(NCCNc3cccc(C(F)(F)F)c3)nn2)n1 [Compound 6] | 0.428 nM | –
12 | Cc1nsc(-c2ccc(NCCCCOc3ccc(F)cc3F)nn2)n1 [Compound 22] | 72.6 nM | –
13 | Cc1nsc(-c2ccc(N(C)CCCCOc3ccc(Br)cc3[N+](=O)[O-])nn2)n1 [Compound 56] | 80.7 nM | –
14 | CCN(CCCCOc1cccc(C(F)(F)F)c1)c1ccc(-c2nc(C)ns2)nn1 [Compound 63] | 9.2 nM | –
15 | Cc1nsc(-c2ccc(N(C)CCNc3ccccc3)nn2)n1 [Compound 9] | 17.9 nM | –
16 | Cc1nsc(-c2ccc(NCCCCSc3cccc(C(F)(F)F)c3)nn2)n1 [Compound 73] | 2.86 nM | –
17 | Cc1ccc(C(C)C)c(OCCCCNc2ccc(-c3nc(C)ns3)nn2)c1 [Compound 29] | 24.8 nM | –
18 | Cc1nsc(-c2ccc(NCCCCOc3cccc(F)c3)nn2)n1 [Compound 20] | 8.15 nM | –
19 | Cc1nsc(-c2ccc(NCCCCOc3ccccc3Cl)nn2)n1 [Compound 15] | 1.34 nM | –
20 | COc1ccc(OCCCCN(C)c2ccc(-c3nc(C)ns3)nn2)c(Cl)c1 [Compound 40] | 11.5 nM | –
21 | Cc1nsc(-c2ccc(N(C)CCCNc3cccc(C(F)(F)F)c3)nn2)n1 [Compound 104] | 20.3 nM | –
22 | Cc1nsc(-c2ccc(NCCCCSc3ccc(F)cc3)nn2)n1 [Compound 71] | < 0.1 nM | –
23 | Cc1nsc(-c2ccc(NCCCNc3cccc(C(F)(F)F)c3)nn2)n1 [Compound 7] | 45.4 nM | –

Row | SMILES | IC50 | IC50 (192 h)
24 | Cc1nsc(-c2ccc(N(C)CCCCOc3cc(C(F)(F)F)cc(C(F)(F)F)c3)nn2)n1 [Compound 53] | 7.33 nM | –
25 | Cc1nsc(-c2ccc(NCCCCCCOc3cccc(C(F)(F)F)c3)nn2)n1 [Compound 28] | 1.76 nM | –
26 | Cc1nsc(-c2ccc(N(C)CCOc3cccc(C(F)(F)F)c3)nn2)n1 [Compound 50] | 0.83 nM | –
27 | Cc1nsc(-c2ccc(N(C)CCCCOc3cc(F)cc(C(F)(F)F)c3)nn2)n1 [Compound 48] | 1.85 nM | –
28 | Cc1nsc(-c2ccc(N(C)CCCCOc3ccc(Br)cc3)nn2)n1 [Compound 36] | 5.3 nM | –
29 | Cc1nsc(-c2ccc(N(C)CCCCSc3ccc(F)cc3)nn2)n1 [Compound 72] | 0.388 nM | –
30 | Cc1nsc(-c2ccc(N(C)CCCCOc3ccccc3F)nn2)n1 [Compound 41] | 2.56 nM | –
31 | Cc1nsc(-c2ccc(NCCCCOc3cccc(C(F)(F)F)c3)nn2)n1 [Compound 26] | 3.97 nM | –
32 | Cc1nsc(-c2ccc(NCCCCOc3ccc(Cl)cc3)nn2)n1 [Compound 16] | 15.8 nM | –
33 | Cc1nsc(-c2ccc(N(C)CCN(Cc3ccccc3)c3cccc(C(F)(F)F)c3)nn2)n1 [Compound 110] | 6.98 nM | –
34 | Cc1nsc(-c2ccc(NCCCCCCNc3ccccc3)nn2)n1 [Compound 5] | 16.4 nM | –
35 | FC(F)(F)c1cccc(OCCCCNc2ccc(-c3ncns3)nn2)c1 [Compound 11] | 90.8 nM | –
36 | Cc1nsc(-c2ccc(NCCCCNc3cccc(C(F)(F)F)c3)nn2)n1 [Compound 108] | 37.9 nM | –
37 | CN(C)c1nsc(-c2ccc(NCCCCOc3cccc(C(F)(F)F)c3)nn2)n1 [Compound 67] | 32.4 nM | –
38 | Cc1nsc(-c2ccc(N(C)CCCCSc3cccc(C(F)(F)F)c3)nn2)n1 [Compound 74] | 1 nM | –
39 | Cc1nsc(-c2ccc(N(C)CCCCOc3cccc(C(F)(F)F)c3F)nn2)n1 [Compound 46] | 1.46 nM | –
40 | CN(CCCCOc1cccc(C(F)(F)F)c1)c1ccc(-c2nc(CO)ns2)nn1 [Compound 102] | 2.08 nM | –
41 | Cc1nsc(-c2ccc(NCCCOc3cccc(C(F)(F)F)c3)nn2)n1 [Compound 25] | 40.4 nM | –
42 | Cc1nsc(-c2ccc(N(C)CCCCOc3cccc([N+](=O)[O-])c3)nn2)n1 [Compound 57] | 51.1 nM | –
43 | Cc1nsc(-c2ccc(N(C)CCCOc3cccc(C(F)(F)F)c3)nn2)n1 [Compound 51] | 9.38 nM | –
44 | Cc1cccc(OCCCCN(C)c2ccc(-c3nc(C)ns3)nn2)c1 [Compound 61] | 35.1 nM | –
45 | Cc1nsc(-c2ccc(N(C)CCCCOc3ccc(C(F)(F)F)cc3)nn2)n1 [Compound 55, N-methyl-6-(3-methyl-1,2,4-thiadiazol-5-yl)-N-[4-[4-(tri-fluoromethyl)phenoxy]butyl]-3-pyridazinamine monohydrochloride] | – | 3.62 nM
46 | Cc1nsc(-c2ccc(N(C)CCCCOc3ccc(F)cc3)nn2)n1 [Compound 43] | 2.78 nM | –

Row | SMILES | IC50 | IC50 (192 h)
47 | Cc1nsc(-c2ccc(NCCCCOc3ccc(F)cc3)nn2)n1 [Compound 21] | 48.4 nM | –
48 | Cc1nsc(-c2ccc(N(C)CCCCOc3ccc(F)cc3F)nn2)n1 [Compound 44] | 15.2 nM | –
49 | Cc1ccc(C(C)C)c(OCCCCN(C)c2ccc(-c3nc(C)ns3)nn2)c1 [Compound 62] | 5.53 nM | –
50 | Cc1nsc(-c2ccc(N(C)CCCCN(C)c3cccc(C(F)(F)F)c3)nn2)n1 [Compound 111] | 1.87 nM | –
51 | Cc1nsc(-c2ccc(NCCOc3cccc(C(F)(F)F)c3)nn2)n1 [Compound 24] | 1.33 nM | –
52 | Cc1nsc(-c2ccc(N(C)CCCCCc3ccc(F)cc3)nn2)n1 [Compound 76] | 1.15 nM | –
53 | Cc1nsc(-c2ccc(NCCCCNc3ccccc3)nn2)n1 [Compound 3] | 45.7 nM | –
54 | Cc1nsc(-c2ccc(N(C)CCN(C)c3ccccc3)nn2)n1 [Compound 10] | 15.6 nM | –
55 | Cc1nsc(-c2ccc(N(C)CCCCC(=O)c3cccc(C(F)(F)F)c3)nn2)n1 [Compound 70] | 12.2 nM | –
56 | CN(C)c1nsc(-c2ccc(NCCCCCCNc3cccc(C(F)(F)F)c3)nn2)n1 [Compound 97] | 1.6 nM | –
57 | Cc1nsc(-c2ccc(N(C)CCNc3cccc(C(F)(F)F)c3)nn2)n1 [Compound 112] | 13.3 nM | –
58 | CN(C)c1nsc(-c2ccc(N(C)CCOc3cccc(C(F)(F)F)c3)nn2)n1 [Compound 100] | 7.01 nM | –
59 | Cc1nsc(-c2ccc(N(C)CCCCOc3ccc(Cl)c(Cl)c3)nn2)n1 [Compound 39] | 17.1 nM | –
60 | Cc1nsc(-c2ccc(N(C)CCCCOc3ccccc3Cl)nn2)n1 [Compound 37] | 1.32 nM | –
61 | Cc1nsc(-c2ccc(N(C)CCCCOc3ccc(F)c(F)c3)nn2)n1 [Compound 45] | 2 nM | –
62 | FC(F)(F)c1cccc(OCCNc2ccc(-c3ncns3)nn2)c1 [Compound 98] | 3.07 nM | –
63 | Cc1nsc(-c2ccc(N(C)CCCCOc3ccc([N+](=O)[O-])c(C(F)(F)F)c3)nn2)n1 [Compound 54] | 13.7 nM | –
64 | Cc1nsc(-c2ccc(NCCCCCNc3ccccc3)nn2)n1 [Compound 4] | 21.2 nM | –
65 | Cc1nsc(-c2ccc(NCCCCCOc3cccc(C(F)(F)F)c3)nn2)n1 [Compound 27] | 0.622 nM | –
66 | Cc1nsc(-c2ccc(N(C)CCCCOc3cccc(F)c3)nn2)n1 [Compound 42] | 42.2 nM | –
67 | Cc1nsc(-c2ccc(SCCCCOc3cccc(C(F)(F)F)c3)nn2)n1 [Compound 94, 3-(3-methyl-1,2,4-thiadiazol-5-yl)-6-[[4-[3-(trifluoromethyl)phenoxy]butyl]thio]pyridazine] | – | 4.71 nM
68 | Cc1nsc(-c2ccc(N(C)CCCCOc3ccc(Cl)cc3)nn2)n1 [Compound 38] | 37.2 nM | –
69 | Cc1nsc(-c2ccc(N(C)CCCCOc3cc(C(F)(F)F)ccc3F)nn2)n1 [Compound 47] | 12.5 nM | –
